# According to US20050277645A1, “Sleep inducing compounds and methods relating thereto” (Neurocrine Biosciences, Inc., priority 2004, published 2005):
# Molecular target: T1, human H1 receptor (Homo sapiens, UniProt P35367)
# T1 construct: expressed in transfected cells; host or cells: CHO cells (crude membranes)
# Assay: Human histamine H1 receptor binding assay
# Details: competition with 1.5 nM [pyridinyl-5-3H]Pyrilamine, crude membranes of CHO cells transfected with human H1 receptor; Ki from IC50 by Cheng-Prusoff
# Protocol: Compounds of the present invention may be evaluated for binding to the histamine H1 receptor by a standard binding assay. […] Non-specific binding is determined in the presence of excess (1 μM) doxepin. Bound and free ligand are separated by rapid vacuum filtration using a Packard 96-well cell harvester onto UniFilter GF/C filter plates (PerkinElmer) that has been pretreated with 1% polyethyleneimine. The filter plates are then washed with 600 μl phosphate buffered saline containing 0.01% (v/v) Triton-X100. Bound radioligand is determined by scintillation counting using a TopCount-NXT (Packard). Binding data is analyzed by nonlinear, least-squares curve fitting algorithms using GraphPad Prism (GraphPad Software, Inc. San Diego, Calif.) or ActivityBase (IDBS, Guildford, Surrey, UK).
# T1 sequence (P35367 whole entry): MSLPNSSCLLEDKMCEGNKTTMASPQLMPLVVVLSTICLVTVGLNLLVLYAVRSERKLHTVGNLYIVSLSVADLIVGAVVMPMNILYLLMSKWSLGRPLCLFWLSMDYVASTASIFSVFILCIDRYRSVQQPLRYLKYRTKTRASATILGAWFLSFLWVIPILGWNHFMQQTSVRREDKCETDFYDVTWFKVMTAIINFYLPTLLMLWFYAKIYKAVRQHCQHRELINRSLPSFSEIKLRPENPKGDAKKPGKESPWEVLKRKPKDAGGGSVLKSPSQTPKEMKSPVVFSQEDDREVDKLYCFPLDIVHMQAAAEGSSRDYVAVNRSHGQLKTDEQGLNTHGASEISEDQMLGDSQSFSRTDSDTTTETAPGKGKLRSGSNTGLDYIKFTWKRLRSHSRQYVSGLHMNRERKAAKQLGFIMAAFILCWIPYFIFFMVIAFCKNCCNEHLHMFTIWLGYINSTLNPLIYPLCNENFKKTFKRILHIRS
row,SMILES,Ki
1,"CC(C#N)C1=C(CCN(C)C)Cc2cc(Cl)ccc21 (stereo not shown) [23-1, 2-[5-chloro-2-(2-dimethylamino-ethyl)-3H-inden-1-yl]-propionitrile]",≤ 250 nM
2,"CC(C1=C(CCN(C)C)Cc2ccccc21)c1ncc(-c2ccccc2)o1 (stereo not shown) [9-1, dimethyl-(2-{3-[1-(5-phenyl-oxazol-2-yl)-ethyl]-1H-inden-2-yl}-ethyl)-amine]",≤ 250 nM
3,c1ccc2c(c1)CC(CCN1CCC1)=C2Cc1cnccn1 [21-10],≤ 250 nM
4,Cc1csc([C@H](C)C2=C(CCN(C)C)Cc3cc(Cl)ccc32)n1 [22-5],≤ 250 nM
5,CCCN(C)CCC1=C(Cc2cnccn2)c2ccccc2C1 [16-2],≤ 250 nM
6,CNCCC1=C(C(C)c2cnccn2)c2ccc(C)cc2C1 (stereo not shown) [15-5],≤ 250 nM
7,"COc1ccc2c(c1)CC(CCN1CCC1)=C2C(C)c1cnccn1 (stereo not shown) [21-1, 2-{1-[2-(2-azetidin-1-yl-ethyl)-5-methoxy-3H-inden-1-yl]-ethyl}-pyrazine]",≤ 250 nM
8,CN(CCO)CCC1=C(Cc2cnccn2)c2ccccc2C1 [16-3],≤ 250 nM
9,Cc1cnc(C(C)C2=C(CCN(C)C)Cc3ccccc32)o1 (stereo not shown) [11-1],≤ 250 nM
10,"COc1ccc2c(c1)C(C(C)c1nccs1)=C(CCN(C)C)C2 (single isomer, unassigned) [25-2, {2-[5-methoxy-3-(1-thiazol-2-yl-ethyl)-1H-inden-2-yl]-ethyl}-dimethyl-amine]",≤ 250 nM
11,O[C@H]1CCN(CCC2=C(Cc3cccnn3)c3ccc(F)cc3C2)C1 [19-4],≤ 250 nM
12,COCC(C)C1=C(CCN(C)C)Cc2ccccc21 (stereo not shown) [6-2],≤ 250 nM
13,CC(CC1=C(Cc2cnccn2)c2ccccc2C1)N1CCCC1 (stereo not shown) [18-4],≤ 250 nM
14,"Cc1cnc(C(C)C2=C(CCN(C)C)Cc3ccccc32)s1 (stereo not shown) [10-2, dimethyl-(2-{3-[1-(5-methyl-thiazol-2-yl)-ethyl]-1H-inden-2-yl}-ethyl)-amine]",≤ 250 nM
15,CCOc1nccnc1C(C)C1=C(CCN(C)C)Cc2cc(F)ccc21 (stereo not shown) [4-38],≤ 250 nM
16,COC(=O)C(C)C1=C(CCN(C)C)Cc2ccccc21 (stereo not shown) [7-3],≤ 250 nM
17,"CC(C(=O)OC(C)(C)C)C1=C(CCN(C)C)Cc2ccccc21 (stereo not shown) [7-1, 2-[2-(2-dimethylamino-ethyl)-3H-inden-1-yl]-propionic acid tert-butyl ester]",≤ 250 nM
18,CC(C1=C(CCN(C)C)Cc2ccccc21)c1nnc(-c2ccccc2)o1 (stereo not shown) [8-2],≤ 250 nM
19,CC(C1=C(CCN(C)C)Cc2ccccc21)c1nnc(-c2ccccc2)s1 (stereo not shown) [14-2],≤ 250 nM
20,COc1nccnc1C(C)C1=C(CCN(C)C)Cc2cc(Cl)ccc21 (stereo not shown) [4-20],≤ 250 nM
21,COc1ccc2c(c1)CC(CCN1CCOCC1)=C2Cc1cnccn1 [21-9],≤ 250 nM
22,c1cnnc(CC2=C(CCN3CCCC3)Cc3ccccc32)c1 [21-8],≤ 250 nM
23,"CC(C1=C(CCN(C)C)Cc2cc(Cl)ccc21)c1nccs1 (single isomer, unassigned) [23-2, {2-[6-chloro-3-(1-thiazol-2-yl-ethyl)-1H-inden-2-yl]-ethyl}-dimethyl-amine]",≤ 250 nM
24,"Fc1ccc2c(c1)CC(CCN1CCCC1)=C2Cc1cccnn1 [19-1, 3-[5-fluoro-2-(2-pyrrolidin-1-yl-ethyl)-3H-inden-1-ylmethyl]-pyridazine]",≤ 250 nM
25,"CC1CN=C(C(C)C2=C(CCN(C)C)Cc3ccccc32)O1 (stereo not shown) [12-1, dimethyl-(2-{3-[1-(5-methyl-4,5-dihydro-oxazol-2-yl)-ethyl]-1H-inden-2-yl}-ethyl)-amine]",≤ 250 nM
26,Cc1ccc2c(c1)CC(CCN(C)C)=C2Cc1cccnn1 [4-25],≤ 250 nM

row,SMILES,Ki
1,CCCOc1cncc(CC2=C(CCN(C)C)Cc3ccccc32)n1 [4-17],≤ 250 nM
2,COc1ccc2c(c1)CC(CCN(C)C)=C2Cc1cccnn1 [4-42],≤ 250 nM
3,"CC(C1=NCCO1)C1=C(CCN(C)C)Cc2ccccc21 (stereo not shown) [13-1, (2-{3-[1-(4,5-dihydro-oxazol-2-yl)-ethyl]-1H-inden-2-yl}-ethyl)-dimethyl-amine]",≤ 250 nM
4,"CNCCC1=C([C@@H](C)c2cnccn2)c2ccccc2C1 [15-2, methyl-{2-[3-((R)-1-pyrazin-2-yl-ethyl)-1H-inden-2-yl]-ethyl}-amine]",≤ 250 nM
5,CCC(C1=C(CCN(C)C)Cc2cc(F)ccc21)c1nccnc1OC (stereo not shown) [4-39],≤ 250 nM
6,"CCOCC(C)C1=C(CCN(C)C)Cc2ccccc21 (stereo not shown) [6-1, {2-[3-(2-ethoxy-1-methyl-ethyl)-1H-inden-2-yl]-ethyl}-dimethyl-amine]",≤ 250 nM
7,COc1ccc2c(c1)CC(CCN1CCC1)=C2[C@@H](C)c1cnccn1 [21-2],≤ 250 nM
8,"CC(CC1=C(Cc2cnccn2)c2ccccc2C1)N(C)C (stereo not shown) [18-1, dimethyl-[1-methyl-2-(3-pyrazin-2-ylmethyl-1H-inden-2-yl)-ethyl]-amine]",≤ 250 nM
9,"CCN(C)CCC1=C(Cc2cnccn2)c2ccccc2C1 [16-1, ethyl-methyl-[2-(3-pyrazin-2-ylmethyl-1H-inden-2-yl)-ethyl]-amine]",≤ 250 nM
10,"Fc1ccc2c(c1)CC(CCN1CCC1)=C2Cc1cccnn1 [20-1, 3-[2-(2-azetidin-1-yl-ethyl)-5-fluoro-3H-inden-1-ylmethyl]-pyridazine]",≤ 250 nM
11,COc1nccnc1[C@@H](C)C1=C(CCN(C)C)Cc2cc(Cl)ccc21 [4-22],≤ 250 nM
12,COc1ccc2c(c1)CC(CCN1CCCC1)=C2Cc1cccnn1 [21-6],≤ 250 nM
13,CC(C1=C(CCN(C)C)Cc2ccccc21)c1ccncn1 (stereo not shown) [4-2],≤ 250 nM
14,c1ccc2c(c1)CC(CCN1CCCC1)=C2Cc1cnccn1 [21-7],≤ 250 nM
15,CC(CC1=C(Cc2cccnn2)c2ccccc2C1)N1CCCC1 (stereo not shown) [18-5],≤ 250 nM
16,"CC(C1=C(CCN(C)C)Cc2ccccc21)c1ncc(-c2ccccc2)s1 (stereo not shown) [10-1, dimethyl-(2-{3-[1-(5-phenyl-thiazol-2-yl)-ethyl]-1H-inden-2-yl}-ethyl)-amine]",≤ 250 nM
17,Fc1ccc2c(c1)CC(CCN1CCOCC1)=C2Cc1cccnn1 [19-2],≤ 250 nM
18,COc1nccnc1[C@H](C)C1=C(CCN(C)C)Cc2cc(Cl)ccc21 [4-23],≤ 250 nM
19,COc1ccc2c(c1)CC(CCN1CCCC1)=C2Cc1cnccn1 [21-5],≤ 250 nM
20,CCOc1nccnc1CC1=C(CCN(C)C)Cc2ccccc21 [4-16],≤ 250 nM
21,CNCCC1=C(C(C)c2nc(C)cs2)c2ccccc2C1 (stereo not shown) [15-6],≤ 250 nM
22,"CNCCC1=C(Cc2cnccn2)c2ccccc2C1 [15-4, methyl-[2-(3-pyrazin-2-ylmethyl-1H-inden-2-yl)-ethyl]-amine]",≤ 250 nM
23,CN(C)CCC1=C(C(C)(C)c2cnccn2)c2ccccc2C1 [4-12],≤ 250 nM
24,O[C@@H]1CCN(CCC2=C(Cc3cccnn3)c3ccc(F)cc3C2)C1 [19-3],≤ 250 nM
25,"Cc1nnc(C(C)C2=C(CCN(C)C)Cc3ccccc32)s1 (stereo not shown) [14-1, dimethyl-(2-{3-[1-(5-methyl-[1,3,4]thiadiazol-2-yl)-ethyl]-1H-inden-2-yl}-ethyl)-amine]",≤ 250 nM
26,"Cc1nnc(C(C)C2=C(CCN(C)C)Cc3ccccc32)o1 (stereo not shown) [8-1, dimethyl-(2-{3-[1-(5-methyl-[1,3,4]oxadiazol-2-yl)-ethyl]-1H-inden-2-yl}-ethyl)-amine]",≤ 250 nM
